# Assay results: patent US20070117770A1, “Human ribosomal DNA (rDNA) and ribosomal RNA (rRNA) nucleic acids and uses thereof” (Cylene Pharmaceuticals, Inc., priority 2005, published 2007)
# System: cMYC RNA synthesis, HCT-116
# Test: PCR control assay of C-myc transcription
# Type: cell-based
# Conditions: not given
# Experimental: A control assay that detected effects of the compounds on C-myc transcription also was conducted using a primer/probe set purchased from ABI (TaqMan Gene Expression Assay with assay ID: Hs99999003_m1). The following assay protocol was utilized:
# (§1) Mix • 1 ug RNA • 2.5 ul 10× Taq Man buffer • 5.5 ul 25 mM MgCl2 • 5 ul of a mix of dNTP (500 uM each) • 1.2 ul random hexamer primer (2.5 uM stock) • 0.5 ul RNase inhibitor (0.4 units/ul) • 0.6 ul Reverse Transcriptase (1.2 units/ul) • bring to 25 ul total volume with water
# (§2) Mix • 5 ul Reverse Transcriptase reaction product • 12.5 ul 2×PCR mix • 1 uM forward primer • 1 uM reverse primer • 0.5 uM Taq Man probe • 500 nM Rox • Adjust to 25 ul final volume with water
# (§3) PCR cycles • 95 degrees C. 1 minute • 40 cycles of • 95 degrees C. 15 seconds • 60 degrees C. 1 minute.
# (§4) Fluorescence of digested label was detected and quantified. […] The effect of other compounds on rRNA synthesis also were assessed in the assay, and provided in the table hereafter are IC50 values of selected compounds pertaining to rRNA synthesis and cMYC RNA synthesis.
row,Compound,QPCRMYC IC50_HCT-116
1,CC(C)N1CCN(c2nc3c(cc2F)c(=O)c(C(=O)NCCC2CCCN2C)c2n(C)c4ccc(C#N)cc4n32)CC1 (centres unmarked) [Compound 3],INACTIVE

# Same assay, conditions: Homo sapiens, read-out: QPCRMYC IC50_HCT-116
row,Compound,IC50
1,O=C(NCCN1CCCC1)c1cn2c3c(c(NCCN4CCCC4)c(F)cc3c1=O)Oc1ccccc1-2 [Compound 1],10 nM
2,CC(C)N1CCN(c2c(F)cc3c(=O)c(C(=O)NCCN4CCCC4)cn4c3c2Oc2cc(Cl)ccc2-4)CC1 [Compound 2],100 nM

# System: rRNA synthesis, HCT-116
# Test: PCR assay of rRNA synthesis from 45S rDNA (5' ETS probe)
# Type: cell-based
# Conditions: Homo sapiens; rRNA synthesis, HCT-116; read-out: QPCRrDNA IC50_HCT-116
# Experimental: Assays were conducted to determine the effects of compounds on rRNA synthesis from 45S rDNA. In particular, compound A-1 at various concentrations was incubated with cells and tested for an effect on rRNA synthesis after a two hour or four hour incubation with the compound. Synthesized rRNA was quantified by a polymerase chain reaction (PCR) assay. A primer/probe set was designed using Primer Express software and synthesized by Applied Biosystems. The 5′ ETS Probe utilized had the following sequence (@ its 3′ end): 6FAM-TTG ATC CTG CCA GTA GC-MGBNFQ (SEQ ID NO:227). The primer sequences were as follows:
# as §1, §2, §3, §4
row,Compound,IC50
1,O=C(NCCN1CCCC1)c1cn2c3c(c(NCCN4CCCC4)c(F)cc3c1=O)Oc1ccccc1-2 [Compound 1],50 nM
2,CC(C)N1CCN(c2c(F)cc3c(=O)c(C(=O)NCCN4CCCC4)cn4c3c2Oc2cc(Cl)ccc2-4)CC1 [Compound 2],50 nM
3,CC(C)N1CCN(c2nc3c(cc2F)c(=O)c(C(=O)NCCC2CCCN2C)c2n(C)c4ccc(C#N)cc4n32)CC1 (centres unmarked) [Compound 3],50 nM

# Molecular target: T1, nucleolin (Homo sapiens, UniProt P19338)
# T1 construct: without the N-terminal acidic stretches domain
# Test: Filter-binding assay of 32P-labeled quadruplexes and Nucleolin
# Conditions: not given
# Experimental: The assay also was conducted in a filter-binding format. […] The protein-quadruplex mixtures were incubated for 30 min at ambient temperature and filtered through mixed cellulose ester membrane filters (Millipore) with gentle suction. The filters were washed twice with […] of binding buffer, dried and OptiPhase ‘SuperMix’ scintillation cocktail (Perkin Elmer) was added to the wells. Radioactivity was assayed with MicroBeta scintillation counter (Perkin Elmer). Binding curves were constructed and apparent Kd's and Bmax's for the complexes were calculated using the GraphPad Prizm software program (GraphPad Software). In the following table, the nucleic acid ligand is designated in the first column using the nomenclature described herein; the second column provides the nucleotide sequence of the nucleic acid ligand; the third column is the conformation of the ligand as determined by circular dichroism (M is mixed, P is parallel, A is antiparallel, C is complex, SS is single-stranded and ND is not determined); the fourth column is the dissociation constant determined by the filter binding assay of nucleolin protein and the nucleic acid ligand; the fifth column is a Bmax constant determined by the filter binding assay, which is the percent of active nucleic acid ligand in each assay; and the sixth column presents the concentration of Compound A-1 required to dissociate half of the complexed nucleic acid ligand and nucleolin protein, as determined by the EMSA assay described above.
# T1 sequence (P19338 284-710 limits assumed): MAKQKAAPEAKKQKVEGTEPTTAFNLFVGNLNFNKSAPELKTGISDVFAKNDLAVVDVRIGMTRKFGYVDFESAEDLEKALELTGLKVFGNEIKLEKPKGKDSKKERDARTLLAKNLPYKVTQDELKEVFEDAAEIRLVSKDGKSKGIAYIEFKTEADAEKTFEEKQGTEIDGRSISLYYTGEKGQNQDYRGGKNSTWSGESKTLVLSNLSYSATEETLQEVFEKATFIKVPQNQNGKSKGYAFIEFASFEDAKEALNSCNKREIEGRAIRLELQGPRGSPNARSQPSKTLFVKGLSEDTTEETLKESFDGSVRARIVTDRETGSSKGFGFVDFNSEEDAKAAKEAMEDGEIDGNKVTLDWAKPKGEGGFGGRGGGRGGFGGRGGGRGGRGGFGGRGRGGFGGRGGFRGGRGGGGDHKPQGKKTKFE
row,Compound,"Bmax, percent of active nucleic acid ligand"
1,"AGGGACCGGTGGGGCCGGGGCGGGG (DNA, backbone and methylation of C not given here; listed as Homo sapiens) [Compound 3468T]",21%
2,"AGGGACGCCTGGGGAAGGGAGGGGG (DNA, backbone and methylation of C not given here; listed as Homo sapiens) [Compound 1310T]",50%
3,"AGGGAGGACGCGGGGCCGGGGGGCGGAGACGGG (DNA, backbone and methylation of C not given here; listed as Homo sapiens) [Compound 8716T]",49%
4,"AGGGAGGGAGACGGGGGGG (DNA, backbone and methylation of C not given here; listed as Homo sapiens) [Compound 5701NT]",84%
5,"AGGGCGCGGGGTGGGGAGGG (DNA, backbone and methylation of C not given here; listed as Homo sapiens) [Compound 10951T]",52%
6,"AGGGCGGACGGGAGGGAGCGAGCGGGCGCGGGGG (DNA, backbone and methylation of C not given here; listed as Homo sapiens) [Compound 3500T]",20%
7,"AGGGCGGGCGGCGGGGCGGG (DNA, backbone and methylation of C not given here; listed as Homo sapiens) [Compound 7499T]",16%
8,"AGGGGACACCGGGGGGGCGCCGGGGG (DNA, backbone and methylation of C not given here; listed as Homo sapiens) [Compound 11888T]",47%
9,"AGGGGAGGGGGGAGGACGGGGAGCGGGGG (DNA, backbone and methylation of C not given here; listed as Homo sapiens) [Compound 10985T]",35%
10,"AGGGGCGGCGGGGAGGAGGAGGGGCGCGGGG (DNA, backbone and methylation of C not given here; listed as Homo sapiens) [Compound 7370T]",16%
11,"AGGGGCGGCGGGGGAAGGGAGGGCGGGTGGAGGGGTCGGGAGGAACGGGGGGCGGG (DNA, backbone and methylation of C not given here; listed as Homo sapiens) [Compound 8440T]",35%
12,"AGGGGCGGGGGCGCGGGGAGGAGGGGTGGG (DNA, backbone and methylation of C not given here; listed as Homo sapiens) [Compound 9024T]",43%
13,"AGGGGCTCCGGGGGCGGGGAGCGGGGCGTGGGCGGGAGGAGGGG (DNA, backbone and methylation of C not given here; listed as Homo sapiens) [Compound 10137T]",65%
14,"AGGGGGGAACGGGGGGCGGACGGGGCCGGGGGGGTAGGGCGGGGGG (DNA, backbone and methylation of C not given here; listed as Homo sapiens) [Compound 11345T]",32%
15,"AGGGGGTGGGCGCCGGGAGGGGGG (DNA, backbone and methylation of C not given here; listed as Homo sapiens) [Compound 8904T]",31%
16,"AGGGTGGGGCGGGGGAGGGCCGCGAGGGGGGTGCCCCGGGCGTGGGGGGGG (DNA, backbone and methylation of C not given here; listed as Homo sapiens) [Compound 10885T]",82%
17,"GGGCCCGCGGGGGGAGGGGGAAGGGGCGGG (DNA, backbone and methylation of C not given here; listed as Homo sapiens) [Compound 6914T]",50%
18,"GGGCGGGGGGGGCGGGGGG (DNA, backbone and methylation of C not given here; listed as Homo sapiens) [Compound 6534NT]",51%
19,"GGGGGCGGGAACCCCCGGGCGCCTGTGGG (DNA, backbone and methylation of C not given here; listed as Homo sapiens) [Compound 6374NT]",47%
20,"GGGGTGGGGGGGAGGG (listed as DNA, chemistry not given here; listed as Homo sapiens) [Compound 13079NT]",37%
21,"GGGTCCGGAAGGGGAAGGGTGCCGGCGGGGAGAGAGGGTCGGGGG (DNA, backbone and methylation of C not given here; listed as Homo sapiens) [Compound 7253NT]",60%
22,"GGGTCGGGGGGTGGGGCCCGGGCCGGGG (listed as DNA, chemistry not given here; listed as Homo sapiens) [Compound 2957NT]",66%
23,"GGGTGGACGGGGGGGCCTGGTGGGG (listed as DNA, chemistry not given here; listed as Homo sapiens) [Compound 1196NT]",41%
24,"GGGTGGCGGGGGGGAGAGGGGGG (listed as DNA, chemistry not given here; listed as Homo sapiens) [Compound 6960NT]",68%
25,"TGGGGAGGGTGGGGAGGGTGGGGAATT (DNA, backbone not given here; listed as Homo sapiens) [Myc27, reference compound]",33%

# Same assay, conditions: 0.2 nM 32P-labeled quadruplex, read-out: Kd, apparent dissociation constant of nucleolin protein and the nucleic acid ligand
row,Compound,Kd
1,"AGGGACCGGTGGGGCCGGGGCGGGG (DNA, backbone and methylation of C not given here; listed as Homo sapiens) [Compound 3468T]",2.4 nM
2,"AGGGACGCCTGGGGAAGGGAGGGGG (DNA, backbone and methylation of C not given here; listed as Homo sapiens) [Compound 1310T]",4.4 nM
3,"AGGGACGGGGACCGGCGGGCCACGGGG (DNA, backbone and methylation of C not given here; listed as Homo sapiens) [Compound 13236T]",> 30 nM
4,"AGGGAGGACGCGGGGCCGGGGGGCGGAGACGGG (DNA, backbone and methylation of C not given here; listed as Homo sapiens) [Compound 8716T]",3.1 nM
5,"AGGGAGGGAGACGGGGGGG (DNA, backbone and methylation of C not given here; listed as Homo sapiens) [Compound 5701NT]",3.2 nM
6,"AGGGCGCGGGGTGGGGAGGG (DNA, backbone and methylation of C not given here; listed as Homo sapiens) [Compound 10951T]",0.2 nM
7,"AGGGCGGACGGGAGGGAGCGAGCGGGCGCGGGGG (DNA, backbone and methylation of C not given here; listed as Homo sapiens) [Compound 3500T]",1.1 nM
8,"AGGGCGGGCGGCGGGGCGGG (DNA, backbone and methylation of C not given here; listed as Homo sapiens) [Compound 7499T]",1.1 nM
9,"AGGGGACACCGGGGGGGCGCCGGGGG (DNA, backbone and methylation of C not given here; listed as Homo sapiens) [Compound 11888T]",0.2 nM
10,"AGGGGAGGGGGGAGGACGGGGAGCGGGGG (DNA, backbone and methylation of C not given here; listed as Homo sapiens) [Compound 10985T]",0.2 nM
11,"AGGGGCGGCGGGGAGGAGGAGGGGCGCGGGG (DNA, backbone and methylation of C not given here; listed as Homo sapiens) [Compound 7370T]",1.1 nM
12,"AGGGGCGGCGGGGGAAGGGAGGGCGGGTGGAGGGGTCGGGAGGAACGGGGGGCGGG (DNA, backbone and methylation of C not given here; listed as Homo sapiens) [Compound 8440T]",0.3 nM
13,"AGGGGCGGGGGCGCGGGGAGGAGGGGTGGG (DNA, backbone and methylation of C not given here; listed as Homo sapiens) [Compound 9024T]",0.3 nM
14,"AGGGGCTCCGGGGGCGGGGAGCGGGGCGTGGGCGGGAGGAGGGG (DNA, backbone and methylation of C not given here; listed as Homo sapiens) [Compound 10137T]",0.4 nM
15,"AGGGGGGAACGGGGGGCGGACGGGGCCGGGGGGGTAGGGCGGGGGG (DNA, backbone and methylation of C not given here; listed as Homo sapiens) [Compound 11345T]",0.3 nM
16,"AGGGGGTGGGCGCCGGGAGGGGGG (DNA, backbone and methylation of C not given here; listed as Homo sapiens) [Compound 8904T]",0.4 nM

row,Compound,Kd
1,"AGGGTGGGGCGGGGGAGGGCCGCGAGGGGGGTGCCCCGGGCGTGGGGGGGG (DNA, backbone and methylation of C not given here; listed as Homo sapiens) [Compound 10885T]",0.2 nM
2,"AGGGTTAGGGTTAGGGTTAGGG [hTeI, reference compound]",> 30 nM
3,"GGAGGAGGAGGA (DNA, backbone not given here; listed as Homo sapiens) [GGA4, reference compound]",> 30 nM
4,"GGGCCCGCGGGGGGAGGGGGAAGGGGCGGG (DNA, backbone and methylation of C not given here; listed as Homo sapiens) [Compound 6914T]",0.8 nM
5,"GGGCCGGGACGGGGTCCGGGG (listed as DNA, chemistry not given here; listed as Homo sapiens) [Compound 13173NT]",> 30 nM
6,"GGGCGGGGGGGGCGGGGGG (DNA, backbone and methylation of C not given here; listed as Homo sapiens) [Compound 6534NT]",1.1 nM
7,"GGGCTGGGTCGGTCGGGCTGGGG (listed as DNA, chemistry not given here; listed as Homo sapiens) [Compound 10816NT]",> 30 nM
8,"GGGGGCGGGAACCCCCGGGCGCCTGTGGG (DNA, backbone and methylation of C not given here; listed as Homo sapiens) [Compound 6374NT]",5.5 nM
9,"GGGGTGGGGGGGAGGG (listed as DNA, chemistry not given here; listed as Homo sapiens) [Compound 13079NT]",2.6 nM
10,"GGGTCCGGAAGGGGAAGGGTGCCGGCGGGGAGAGAGGGTCGGGGG (DNA, backbone and methylation of C not given here; listed as Homo sapiens) [Compound 7253NT]",0.4 nM
11,"GGGTCGGGGGGTGGGGCCCGGGCCGGGG (listed as DNA, chemistry not given here; listed as Homo sapiens) [Compound 2957NT]",2.7 nM
12,"GGGTGGACGGGGGGGCCTGGTGGGG (listed as DNA, chemistry not given here; listed as Homo sapiens) [Compound 1196NT]",4.2 nM
13,"GGGTGGCGGGGGGGAGAGGGGGG (listed as DNA, chemistry not given here; listed as Homo sapiens) [Compound 6960NT]",0.5 nM
14,"GTCGTAACGTCGATCAGTTTACGACAT (DNA, backbone and methylation of C not given here; listed as Homo sapiens) [RND27, reference compound]",> 30 nM
15,"TGGGGAGGGTGGGGAGGGTGGGGAATT (DNA, backbone not given here; listed as Homo sapiens) [Myc27, reference compound]",4.4 nM
